Measured values from patent US20180244611A1, “Modulators of the Cystic Fibrosis Transmembrane Conductance Regulator Protein and Methods of Use” (AbbVie S.à.r.l., priority 2017, published 2018).

Legend:
[1] = target: T1, F508delCFTR (Homo sapiens, UniProt P13569, DEL508-508); test: Cell Surface Expression-Horse Radish Peroxidase (CSE-HRP) assay, test compound with co-corrector; type: cell-based; settings: for EC50: CSE-HRP assay, test compound with 2 μM co-corrector; for Maximum % activity (with co-corrector): maximum at any tested concentration, normalized to on-plate positive control, with 2 μM co-corrector;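 for Maximum % activity (with co-corrector): percent of 2 µM positive control corrector over DMSO; co-corrector is that same compound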
T1 construct: expressed in transfected cells; host or cells: CFBE41o- human lung-derived epithelial cells (CFBE41o-F508delCFTR-HRP), doxycycline-inducible
How it was run: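 CFBE41o- cells expressing F508delCFTR with HRP in the fourth exofacial loop, induced with 0.5 μg/mL doxycycline for 72 h, then treated 18-24 h at 33° C. with compound (8 points, top 20 μM, 3-fold) plus 2 μM co-corrector. Surface HRP read by luminol luminescence; activity normalised to positive control, EC50 from variable-slope sigmoidal fit.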

[2] = target: T1, F508delCFTR; test: Cell Surface Expression-Horse Radish Peroxidase (CSE-HRP) assay, test compound without co-corrector; type: cell-based; settings: for EC50: CSE-HRP assay, test compound without co-corrector; for Emax: maximum at any tested concentration, normalized to on-plate positive control, without co-corrector;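 for Emax: percent of on-plate 2 µM positive control corrector response over DMSO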
How it was run: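 CFBE41o- cells expressing F508delCFTR with HRP in the fourth exofacial loop, induced with 0.5 μg/mL doxycycline for 72 h at 37° C, then exposed to compound alone for 18-24 h at 33° C, 8-point 3-fold series from 20 μM. Surface HRP read by luminol luminescence, normalized to positive corrector control versus DMSO; EC50 from variable-slope sigmoidal fit of three replicate plates.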

T1 sequence (P13569 with tags, fused parts or gaps DEL508-508): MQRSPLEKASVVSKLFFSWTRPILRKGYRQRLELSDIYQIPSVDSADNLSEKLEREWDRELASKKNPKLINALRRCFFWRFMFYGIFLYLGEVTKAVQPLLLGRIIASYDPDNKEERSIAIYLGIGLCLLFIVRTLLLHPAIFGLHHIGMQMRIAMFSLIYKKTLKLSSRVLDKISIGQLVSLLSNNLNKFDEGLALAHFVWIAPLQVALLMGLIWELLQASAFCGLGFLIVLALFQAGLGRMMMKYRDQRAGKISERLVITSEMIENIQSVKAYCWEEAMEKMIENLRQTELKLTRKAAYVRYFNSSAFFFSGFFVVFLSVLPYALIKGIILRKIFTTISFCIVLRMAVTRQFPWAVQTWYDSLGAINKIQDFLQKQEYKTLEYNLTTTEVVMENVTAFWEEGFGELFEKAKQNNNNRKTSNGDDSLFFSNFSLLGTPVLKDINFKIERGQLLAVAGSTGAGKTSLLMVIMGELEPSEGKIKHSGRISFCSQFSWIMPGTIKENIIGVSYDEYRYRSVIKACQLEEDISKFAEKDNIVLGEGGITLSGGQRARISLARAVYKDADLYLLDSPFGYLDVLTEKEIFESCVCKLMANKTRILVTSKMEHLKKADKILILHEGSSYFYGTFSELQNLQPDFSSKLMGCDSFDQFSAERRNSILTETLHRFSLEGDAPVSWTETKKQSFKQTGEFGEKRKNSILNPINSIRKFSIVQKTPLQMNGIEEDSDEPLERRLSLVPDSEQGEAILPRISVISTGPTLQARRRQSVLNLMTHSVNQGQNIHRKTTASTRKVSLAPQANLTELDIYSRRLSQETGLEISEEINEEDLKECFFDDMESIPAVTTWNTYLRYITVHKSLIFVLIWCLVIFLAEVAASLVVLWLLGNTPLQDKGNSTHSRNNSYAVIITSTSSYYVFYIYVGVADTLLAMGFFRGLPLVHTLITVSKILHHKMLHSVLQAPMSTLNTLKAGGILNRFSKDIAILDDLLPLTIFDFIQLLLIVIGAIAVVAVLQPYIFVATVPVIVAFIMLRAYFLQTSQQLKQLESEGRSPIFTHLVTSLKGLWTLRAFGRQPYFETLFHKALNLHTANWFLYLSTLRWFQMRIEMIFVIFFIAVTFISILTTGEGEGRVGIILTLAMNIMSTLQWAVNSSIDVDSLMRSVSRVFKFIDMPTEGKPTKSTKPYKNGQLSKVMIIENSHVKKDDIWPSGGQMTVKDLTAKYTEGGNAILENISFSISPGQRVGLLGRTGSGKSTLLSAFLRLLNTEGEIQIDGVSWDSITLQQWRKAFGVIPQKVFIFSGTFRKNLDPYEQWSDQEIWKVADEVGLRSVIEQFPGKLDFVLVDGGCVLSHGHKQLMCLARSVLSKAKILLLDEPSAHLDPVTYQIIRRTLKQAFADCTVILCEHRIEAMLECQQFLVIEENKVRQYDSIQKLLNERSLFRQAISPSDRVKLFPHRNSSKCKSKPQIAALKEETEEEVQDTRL

Row | Structure (SMILES) | EC50 [1] [µM] | Maximum % activity (with co-corrector) [1] | EC50 [2] [µM] | Emax [2] [%]
1 | CCC1(C(=O)NS(=O)(=O)c2ccc(Cl)cc2Cl)CCc2c(Cl)cccc21 (stereo not shown) [III-113] | < 3 | ++ (≥150 and <350) | ≥ 10 | < 50
2 | CCC1(C(=O)NS(=O)(=O)c2ccc(C)cc2C)CCc2c(Cl)cccc21 (stereo not shown) [III-114] | < 3 | ++ (≥150 and <350) | 3 to 10 | < 50
3 | CCC1(C(=O)NS(=O)(=O)c2c(F)cccc2F)CCc2c(Cl)cccc21 (stereo not shown) [III-115] | < 3 | ++ (≥150 and <350) | < 3 | < 50
4 | CCC1(C(=O)NS(=O)(=O)c2cc(Cl)ccc2Cl)CCc2c(Cl)cccc21 (stereo not shown) [III-116] | ≥ 10 | + (<150) | ≥ 10 | < 50
5 | CCC1(C(=O)NS(=O)(=O)c2cccc(Cl)c2)CCc2c(Cl)cccc21 (stereo not shown) [III-117] | < 3 | ++ (≥150 and <350) | 3 to 10 | < 50
6 | CCC1(C(=O)NS(=O)(=O)c2cc(C)ccc2Cl)CCc2c(Cl)cccc21 (stereo not shown) [III-118] | ≥ 10 | + (<150) | ≥ 10 | < 50
7 | CCC1(C(=O)NS(=O)(=O)c2ccc(OC(F)(F)F)cc2)CCc2c(Cl)cccc21 (stereo not shown) [III-119] | 3 to 10 | + (<150) | ≥ 10 | < 50
8 | CCC1(C(=O)NS(=O)(=O)c2ccccc2C#N)CCc2c(Cl)cccc21 (stereo not shown) [III-120] | ≥ 10 | + (<150) | ≥ 10 | < 50
9 | CCC1(C(=O)NS(=O)(=O)c2c(OC)cccc2OC)CCc2c(Cl)cccc21 (stereo not shown) [III-121] | ≥ 10 | + (<150) | ≥ 10 | < 50
10 | CCC1(C(=O)NS(=O)(=O)c2ccccc2C(F)(F)F)CCc2c(Cl)cccc21 (stereo not shown) [III-122] | ≥ 10 | + (<150) | ≥ 10 | < 50
11 | CCC1(C(=O)NS(=O)(=O)c2ccc3c(c2)OCCO3)CCc2c(Cl)cccc21 (stereo not shown) [III-123] | 3 to 10 | ++ (≥150 and <350) | ≥ 10 | < 50
12 | CCC1(C(=O)NS(=O)(=O)c2c(C)cccc2Cl)CCc2c(Cl)cccc21 (stereo not shown) [III-124] | ≥ 10 | + (<150) | ≥ 10 | < 50
13 | CCC1(C(=O)NS(=O)(=O)c2ccc(Cl)cc2)CCc2c(Cl)cccc21 (stereo not shown) [III-125] | 3 to 10 | ++ (≥150 and <350) | 3 to 10 | < 50
14 | CCC1(C(=O)NS(=O)(=O)c2c(C)cccc2C(F)(F)F)CCc2c(Cl)cccc21 (stereo not shown) [III-126] | ≥ 10 | + (<150) | ≥ 10 | < 50
15 | CCC1(C(=O)NS(=O)(=O)c2cccc(F)c2C#N)CCc2c(Cl)cccc21 (stereo not shown) [III-127] | ≥ 10 | + (<150) | ≥ 10 | < 50
16 | CCC1(C(=O)NS(=O)(=O)C2(C)CC2)CCc2c(Cl)cccc21 (stereo not shown) [III-128] | 3 to 10 | ++ (≥150 and <350) | 3 to 10 | < 50
17 | CCC1(C(=O)NS(=O)(=O)c2ccc(-c3ccccc3)cc2)CCc2c(Cl)cccc21 (stereo not shown) [III-129] | 3 to 10 | ++ (≥150 and <350) | ≥ 10 | < 50
18 | CCC1(C(=O)NS(=O)(=O)c2ccc(CN(C)C)cc2)CCc2c(Cl)cccc21 (stereo not shown) [III-130] | ≥ 10 | + (<150) | ≥ 10 | < 50
19 | CCC1(C(=O)NS(=O)(=O)c2c(C)nn(C)c2Cl)CCc2c(Cl)cccc21 (stereo not shown) [III-131] | ≥ 10 | + (<150) | ≥ 10 | < 50
20 | CCC1(C(=O)NS(=O)(=O)c2cccnc2Cl)CCc2c(Cl)cccc21 (stereo not shown) [III-132] | 3 to 10 | ++ (≥150 and <350) | ≥ 10 | < 50
21 | CCC1(C(=O)NS(=O)(=O)c2ccc3ncccc3c2)CCc2c(Cl)cccc21 (stereo not shown) [III-133] | 3 to 10 | ++ (≥150 and <350) | ≥ 10 | < 50
22 | CCC1(C(=O)NS(=O)(=O)c2c(Cl)nc3sccn23)CCc2c(Cl)cccc21 (stereo not shown) [III-134] | ≥ 10 | + (<150) | ≥ 10 | < 50

Row | Structure (SMILES) | EC50 [1] [µM] | Maximum % activity (with co-corrector) [1] | EC50 [2] [µM] | Emax [2] [%]
23 | CCC1(C(=O)NS(=O)(=O)c2ncccc2C(=O)N(C)C)CCc2c(Cl)cccc21 (stereo not shown) [III-135] | ≥ 10 | + (<150) | ≥ 10 | < 50
24 | CCC1(C(=O)NS(=O)(=O)C2CCCCC2)CCc2c(Cl)cccc21 (stereo not shown) [III-136] | ≥ 10 | + (<150) | ≥ 10 | < 50
25 | CCC1(C(=O)NS(=O)(=O)c2cnccc2N2CCN(C(C)C)CC2)CCc2c(Cl)cccc21 (stereo not shown) [III-137] | ≥ 10 | + (<150) | ≥ 10 | < 50
26 | CCC1(C(=O)NS(=O)(=O)c2ccccc2OCCN2CCCCC2)CCc2c(Cl)cccc21 (stereo not shown) [III-138] | 3 to 10 | ++ (≥150 and <350) | 3 to 10 | < 50
27 | CCC1(C(=O)NS(=O)(=O)c2ccc(C)cc2)CCc2c(Cl)cccc21 (stereo not shown) [III-139] | < 3 | ++ (≥150 and <350) | < 3 | < 50
28 | CCC1(C(=O)NS(=O)(=O)Cc2ccccc2)CCc2c(Cl)cccc21 (stereo not shown) [III-140] | ≥ 10 | + (<150) | ≥ 10 | < 50
29 | CCC1(C(=O)NS(=O)(=O)c2cccc3c2C(=O)N(C)C3=O)CCc2c(Cl)cccc21 (stereo not shown) [III-141] | ≥ 10 | + (<150) | ≥ 10 | < 50
30 | CCC1(C(=O)NS(=O)(=O)c2ccc(OC)cc2)CCc2c(Cl)cccc21 (stereo not shown) [III-142] | 3 to 10 | ++ (≥150 and <350) | 3 to 10 | < 50
31 | CCC1(C(=O)NS(=O)(=O)c2ccc(Oc3ccccc3)cc2)CCc2c(Cl)cccc21 (stereo not shown) [III-143] | ≥ 10 | + (<150) | ≥ 10 | < 50
32 | CCC1(C(=O)NS(=O)(=O)c2cccc(C#N)c2)CCc2c(Cl)cccc21 (stereo not shown) [III-144] | 3 to 10 | ++ (≥150 and <350) | ≥ 10 | < 50
33 | CCC1(C(=O)NS(=O)(=O)c2cc[nH]n2)CCc2c(Cl)cccc21 (stereo not shown) [III-145] | 3 to 10 | ++ (≥150 and <350) | 3 to 10 | < 50
34 | O=C(NS(=O)(=O)c1cccc2ccccc12)C1(Cc2ccccn2)CCc2c(Cl)cccc21 (stereo not shown) [III-147] | 3 to 10 | ++ (≥150 and <350) | 3 to 10 | < 50
35 | COc1ccc(-c2cccc(OC(F)(F)F)c2)c2c1CCCC2C(=O)NS(=O)(=O)c1cccc2ccccc12 (stereo not shown) [III-148] | < 3 | +++ (≥350) | < 3 | ≥ 150
36 | CCC1(C(=O)NS(=O)(=O)c2cccc(Cl)c2C(=O)OC)CCc2c(Cl)cccc21 (stereo not shown) [III-149] | < 3 | + (<150) | ≥ 10 | < 50
37 | O=C(NS(=O)(=O)c1cccc2ccccc12)C1CCc2c(Br)ccc(O)c21 (stereo not shown) [III-152] | 3 to 10 | ++ (≥150 and <350) | 3 to 10 | < 50
38 | COc1ccc(N2CCOCC2)c2c1CCCC2C(=O)NS(=O)(=O)c1cccc2ccccc12 (stereo not shown) [III-153] | ≥ 10 | + (<150) | ≥ 10 | < 50
39 | COc1ccc(-c2ccc(C(F)(F)F)cc2)c2c1CCCC2C(=O)NS(=O)(=O)c1cccc2ccccc12 (stereo not shown) [III-154] | < 3 | +++ (≥350) | < 3 | ≥ 150
40 | CCC1(C(=O)NS(=O)(=O)c2cccc(Cl)c2C)CCc2c(Cl)cccc21 (stereo not shown) [III-156] | < 3 | ++ (≥150 and <350) | 3 to 10 | 50 to 150
41 | COc1ccc(Br)c2c1C(C(=O)NS(=O)(=O)c1cccnc1OC)CC2 (stereo not shown) [III-158] | 3 to 10 | ++ (≥150 and <350) | 3 to 10 | 50 to 150
42 | COc1ccc(Br)c2c1C(C(=O)NS(=O)(=O)c1cccnc1N)CC2 (stereo not shown) [III-159] | 3 to 10 | +++ (≥350) | 3 to 10 | ≥ 150
43 | COc1ccc(Br)c2c1C(C(=O)NS(=O)(=O)c1cccc(N)n1)CC2 (stereo not shown) [III-160] | 3 to 10 | +++ (≥350) | 3 to 10 | 50 to 150
